In patent US20240287122A1, “NOVEL GALACTOSIDE INHIBITOR OF GALECTINS” (GALECTO BIOTECH AB, priority 2020, published 2024):

Experiments:
Galectin-1 = Galectin-1 (Homo sapiens, UniProt P09382); assay: Fluorescence anisotropy assay, affinity for galectin-1; assay type: binding; conditions: compound as inhibitor of the interaction between galectin and a fluorescein tagged saccharide probe
Method: (§1) The affinity of Example 1-43 for galectins were determined by a fluorescence anisotropy assay where the compound was used as an inhibitor of the interaction between galectin and a fluorescein tagged saccharide probe as described Sörme, P., Kahl-Knutsson, B., Huflejt, M., Nilsson, U. J., and Leffler H. (2004) Fluorescence polarization as an analytical tool to evaluate galectin-ligand interactions. Anal. Biochem. 334: 36-47, (Sörme et al., 2004) and Monovalent interactions of Galectin-1 By Salomonsson, Emma; Larumbe, Amaia; Tejler, Johan; Tullberg, Erik; Rydberg, Hanna; Sundin, Anders; Khabut, Areej; Frejd, Torbjomn; Lobsanov, Yuri D.; Rini, James M.; et al, From Biochemistry (2010), 49(44), 9518-9532, (Salomonsson et al., 2010).

Galectin-3 = Galectin-3 (Homo sapiens, UniProt P17931); assay: Fluorescence anisotropy assay, affinity for galectin-3; assay type: binding; conditions: compound as inhibitor of the interaction between galectin and a fluorescein tagged saccharide probe
Galectin-3, sequence (P17931 whole entry): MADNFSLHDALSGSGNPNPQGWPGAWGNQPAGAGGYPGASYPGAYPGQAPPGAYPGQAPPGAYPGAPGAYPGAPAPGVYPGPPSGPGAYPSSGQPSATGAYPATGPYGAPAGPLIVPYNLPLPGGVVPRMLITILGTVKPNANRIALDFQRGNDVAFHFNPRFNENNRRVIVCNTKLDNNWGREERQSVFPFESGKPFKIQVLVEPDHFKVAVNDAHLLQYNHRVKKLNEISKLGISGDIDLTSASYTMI
Method: as §1

Galectin-1, sequence (P09382 whole entry): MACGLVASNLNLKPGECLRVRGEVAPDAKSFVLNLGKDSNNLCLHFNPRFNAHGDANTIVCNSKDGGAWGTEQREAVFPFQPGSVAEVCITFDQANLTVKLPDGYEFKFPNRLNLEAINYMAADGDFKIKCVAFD

Row | Structure (SMILES) | Kd (Galectin-1) [nM] | Kd (Galectin-3) [nM]
1 | COC1C(n2cc(-n3ccc(Cl)n3)nn2)[C@@H](O)C(CO)O[C@@H]1Sc1cc(Br)cnc1C(=O)N(CC1CCC1)CC1CCC1 (stereo partly drawn) [Example 27, 5-Bromo-2-[N,N-bis(cyclobutylmethyl)carbamoyl]pyridin-3-yl 3-[4-(3-chloro-1H-1,2-pyrazol-1-yl)-1H-1,2,3-triazol-1-yl]-3-deoxy-2-O-methyl-1-thio-α-D-galactopyranoside] | 380 | 260
2 | COC1C(n2cc(-n3ccc(Cl)n3)nn2)[C@@H](O)C(CO)O[C@@H]1Sc1cc(Br)cnc1C#N (stereo partly drawn) [Example 3, 5-Bromo-2-cyanopyridin-3-yl 3-[4-(3-chloro-1H-1,2-pyrazol-1-yl)-1H-1,2,3-triazol-1-yl]-3-deoxy-2-O-methyl-1-thio-α-D-galactopyranoside] | 130 | 120
3 | COC1C(n2cc(-n3ccc(Cl)n3)nn2)[C@@H](O)C(CO)O[C@@H]1Sc1cc(Br)cnc1C(=O)N(CC1CC1)CC1CC1 (stereo partly drawn) [Example 24, 5-Bromo-2-[N,N-bis(cyclopropylmethyl)carbamoyl]pyridin-3-yl 3-[4-(3-chloro-1H-1,2-pyrazol-1-yl)-1H-1,2,3-triazol-1-yl]-3-deoxy-2-O-methyl-1-thio-α-D-galactopyranoside] | 120 | 83
4 | COC1C(n2cc(-n3ccc(F)n3)nn2)[C@@H](O)C(CO)O[C@@H]1Sc1cc(Br)cnc1C#N (stereo partly drawn) [Example 12, 5-Bromo-2-cyanopyridin-3-yl 3-deoxy-3-[4-(3-fluoro-1H-1,2-pyrazol-1-yl)-1H-1,2,3-triazol-1-yl]-2-O-methyl-1-thio-α-D-galactopyranoside] | 180 | 160
5 | COC1[C@@H](Sc2cc(Br)cnc2C(=O)NCC(C)C)OC(CO)[C@H](O)[C@@H]1n1cc(-n2ccc(Cl)n2)nn1 (stereo partly drawn) [Example 37, 5-Bromo-2-(N-isobutylcarbamoyl)pyridin-3-yl 3-[4-(3-chloro-1H-1,2-pyrazol-1-yl)-1H-1,2,3-triazol-1-yl]-3-deoxy-2-O-methyl-1-thio-α-D-galactopyranoside] | 92 | 110
6 | COC1C(n2cc(-n3ccc(Cl)n3)nn2)[C@@H](O)C(CO)O[C@@H]1Sc1cc(Br)cnc1C(=O)N1CCCC1 (stereo partly drawn) [Example 28, 5-Bromo-2-(pyrrolidine-1-carbonyl)pyridin-3-yl 3-[4-(3-chloro-1H-1,2-pyrazol-1-yl)-1H-1,2,3-triazol-1-yl]-3-deoxy-2-O-methyl-1-thio-α-D-galactopyranoside] | 69 | 52
7 | OCC1O[C@H](Sc2cncc(Cl)c2)C(O)C(n2cc(-n3ccc(Cl)n3)nn2)[C@H]1O (stereo partly drawn) [Example 5, 5-Chloropyridin-3-yl 3-[4-(3-chloro-1H-1,2-pyrazol-1-yl)-1H-1,2,3-triazol-1-yl]-3-deoxy-1-thio-α-D-galactopyranoside] | 500 | 310
8 | CCN(C(=O)c1ncc(Br)cc1S[C@H]1OC(CO)[C@H](O)C(n2cc(-n3ccc(Cl)n3)nn2)C1OC)C(C)(C)C (stereo partly drawn) [Example 23, 5-Bromo-2-[N,N-(tert-butyl)ethylcarbamoyl]pyridin-3-yl 3-[4-(3-chloro-1H-1,2-pyrazol-1-yl)-1H-1,2,3-triazol-1-yl]-3-deoxy-2-O-methyl-1-thio-α-D-galactopyranoside] | 87 | 72
9 | CCN(CC(F)(F)F)C(=O)c1ncc(Br)cc1S[C@H]1OC(CO)[C@H](O)C(n2cc(-n3ccc(Cl)n3)nn2)C1OC (stereo partly drawn) [Example 29, 5-Bromo-2-[N,N-ethyl-(2,2,2-trifluoroethyl)carbamoyl]pyridin-3-yl 3-[4-(3-chloro-1H-1,2-pyrazol-1-yl)-1H-1,2,3-triazol-1-yl]-3-deoxy-2-O-methyl-1-thio-α-D-galactopyranoside] | 100 | 60
10 | COC1C(n2cc(-n3cc(C)c(Cl)n3)nn2)[C@@H](O)C(CO)O[C@@H]1Sc1cc(Br)cnc1C#N (stereo partly drawn) [Example 18, 5-Bromo-2-cyanopyridin-3-yl 3-[4-(3-chloro-4-methyl-1H-1,2-pyrazol-1-yl)-1H-1,2,3-triazol-1-yl]-3-deoxy-2-O-methyl-1-thio-α-D-galactopyranoside] | 350 | 41
11 | CCN(CC(C)(C)F)C(=O)c1ncc(Br)cc1S[C@H]1OC(CO)[C@H](O)C(n2cc(-n3ccc(Cl)n3)nn2)C1OC (stereo partly drawn) [Example 30, 5-Bromo-2-[N,N-ethyl(2-fluoro-2-methylpropyl)carbamoyl]pyridin-3-yl 3-[4-(3-chloro-1H-1,2-pyrazol-1-yl)-1H-1,2,3-triazol-1-yl]-3-deoxy-2-O-methyl-1-thio-α-D-galactopyranoside] | 140 | 62
12 | COC1[C@@H](Sc2cc(Br)cnc2C(=O)NC23CC(C2)C3)OC(CO)[C@H](O)[C@@H]1n1cc(-n2ccc(Cl)n2)nn1 (stereo partly drawn) [Example 39, 5-Bromo-2-(N-bicyclo[1.1.1]pentan-1-ylcarbamoyl)pyridin-3-yl 3-[4-(3-chloro-1H-1,2-pyrazol-1-yl)-1H-1,2,3-triazol-1-yl]-3-deoxy-2-O-methyl-1-thio-α-D-galactopyranoside] | 64 | 180

Further lines, results first:

Row | Kd (Galectin-1) [nM] | Kd (Galectin-3) [nM] | Structure (SMILES)
13 | 80 | 180 | COC1[C@@H](Sc2cc(Br)cnc2C(=O)NCCF)OC(CO)[C@H](O)[C@@H]1n1cc(-n2ccc(Cl)n2)nn1 (stereo partly drawn) [Example 38, 5-Bromo-2-[N-(2-fluoroethyl)carbamoyl]pyridin-3-yl 3-[4-(3-chloro-1H-1,2-pyrazol-1-yl)-1H-1,2,3-triazol-1-yl]-3-deoxy-2-O-methyl-1-thio-α-D-galactopyranoside]
14 | 110 | 140 | CCCCNC(=O)c1ncc(Br)cc1S[C@H]1OC(CO)[C@H](O)[C@H](n2cc(-n3ccc(Cl)n3)nn2)C1OC (stereo partly drawn) [Example 36, 5-Bromo-2-(N-butylcarbamoyl)pyridin-3-yl 3-[4-(3-chloro-1H-1,2-pyrazol-1-yl)-1H-1,2,3-triazol-1-yl]-3-deoxy-2-O-methyl-1-thio-α-D-galactopyranoside]
15 | 2000 | 560 | COC1C(n2cc(-n3nc(C(F)(F)F)cc3Cl)nn2)[C@@H](O)C(CO)O[C@@H]1Sc1cc(Br)cnc1C#N (stereo partly drawn) [Example 17, 5-Bromo-2-cyanopyridin-3-yl 3-{4-[5-chloro-3-(trifluoromethyl)-1H-1,2-pyrazol-1-yl]-1H-1,2,3-triazol-1-yl}-3-deoxy-2-O-methyl-1-thio-α-D-galactopyranoside]
16 | 63 | 140 | CNC(=O)c1ncc(Br)cc1S[C@H]1OC(CO)[C@H](O)C(n2cc(-n3ccc(Cl)n3)nn2)C1OC (stereo partly drawn) [Example 34, 5-Bromo-2-(N-methylcarbamoyl)pyridin-3-yl 3-[4-(3-chloro-1H-1,2-pyrazol-1-yl)-1H-1,2,3-triazol-1-yl]-3-deoxy-2-O-methyl-1-thio-α-D-galactopyranoside]
17 | 110 | 92 | CCN(C(=O)c1ncc(Br)cc1S[C@H]1OC(CO)[C@H](O)C(n2cc(-n3ccc(Cl)n3)nn2)C1OC)C(C)C (stereo partly drawn) [Example 19, 5-Bromo-2-(N,N-ethylisopropylcarbamoyl)pyridin-3-yl 3-[4-(3-chloro-1H-1,2-pyrazol-1-yl)-1H-1,2,3-triazol-1-yl]-3-deoxy-2-O-methyl-1-thio-α-D-galactopyranoside]
18 | 290 | 30 | COC1C(n2cc(-n3cc(Cl)c(Cl)n3)nn2)[C@@H](O)C(CO)O[C@@H]1Sc1cc(Br)cnc1C#N (stereo partly drawn) [Example 42, 5-Bromo-2-cyanopyridin-3-yl 3-[4-(3,4-dichloro-1H-1,2-pyrazol-1-yl)-1H-1,2,3-triazol-1-yl]-3-deoxy-2-O-methyl-1-thio-α-D-galactopyranoside]
19 | 360 | 360 | COC1C(n2cc(-n3ccc(Cl)n3)nn2)[C@@H](O)C(CO)O[C@@H]1Sc1cc(Br)cnc1C(=O)N(CC(C)C)CC(C)C (stereo partly drawn) [Example 20, 5-Bromo-2-(N,N-diisobutylcarbamoyl)pyridin-3-yl 3-[4-(3-chloro-1H-1,2-pyrazol-1-yl)-1H-1,2,3-triazol-1-yl]-3-deoxy-2-O-methyl-1-thio-α-D-galactopyranoside]
20 | 520 | 420 | COC1C(n2cc(-n3cc(Cl)cn3)nn2)[C@@H](O)C(CO)O[C@@H]1Sc1cc(Br)cnc1C#N (stereo partly drawn) [Example 11, 5-Bromo-2-cyanopyridin-3-yl 3-[4-(4-chloro-1H-1,2-pyrazol-1-yl)-1H-1,2,3-triazol-1-yl]-3-deoxy-2-O-methyl-1-thio-α-D-galactopyranoside]
21 | 74 | 68 | COC1C(n2cc(-n3ccc(Cl)n3)nn2)[C@@H](O)C(CO)O[C@@H]1Sc1cc(Br)cnc1C(=O)N(CC1CC1)OC (stereo partly drawn) [Example 33, 5-Bromo-2-[N,N-(cyclopropylmethyl)methoxycarbamoyl]pyridin-3-yl 3-[4-(3-chloro-1H-1,2-pyrazol-1-yl)-1H-1,2,3-triazol-1-yl]-3-deoxy-2-O-methyl-1-thio-α-D-galactopyranoside]
22 | 54 | 73 | COC1C(n2cc(-n3ccc(Cl)n3)nn2)[C@@H](O)C(CO)O[C@@H]1Sc1cc(Br)cnc1C(=O)N(C)C (stereo partly drawn) [Example 10, 5-Bromo-2-(N,N-dimethylcarbamoyl)pyridin-3-yl 3-[4-(3-chloro-1H-1,2-pyrazol-1-yl)-1H-1,2,3-triazol-1-yl]-3-deoxy-2-O-methyl-1-thio-α-D-galactopyranoside]
23 | 150 | 210 | COC1C(n2cc(-n3ccc(Cl)n3)nn2)[C@@H](O)C(CO)O[C@@H]1Sc1cc(Br)cnc1C(F)(F)F (stereo partly drawn) [Example 7, 5-Bromo-2-(trifluoromethyl)pyridin-3-yl 3-[4-(3-chloro-1H-1,2-pyrazol-1-yl)-1H-1,2,3-triazol-1-yl]-3-deoxy-2-O-methyl-1-thio-α-D-galactopyranoside]
